The values that follow come from PubChem BioAssay AID732 (Emory University Molecular Libraries Screening Center, 2007).

Structures are written as SMILES. Values joined by “and” are separate entries in the source; they are usually repeats but may differ in a detail not shown here. Equal values may be shown once. Active and inactive are the calls of the source. No rule for the calls is given here.

The subject of this assay is in vivo angiogenesis, blood vessel count. In words: reduction of blood vessel formation in vivo – HTS, in vivo study (AID 732).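 Also: zebrafish embryos dosed at one day post fertilization; 0% = reference inhibitor and 100% = plate mean.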 The following applies: stronger effect = lower value;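 tested at 30 µM in the well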.
`CC(C)[C@@]1(NC(=O)[C@@H]2C[C@@H]3c4cccc5[nH]cc(c45)C[C@H]3N(C)C2)O[C@@]2(O)[C@@H]3CCCN3C(=O)[C@H](Cc3ccccc3)N2C1=O`: the vessel count % control is 118% (inactive).
Under `c1ccc2c(c1)[I+]c1ccccc1-2` stands 112% (inactive); under `CSc1ccc2c(c1)C(N1CCN(C)CC1)Cc1ccccc1S2` (stereo not given), 60.6% (inactive); under `NC(CCCCCP(=O)(O)O)C(=O)O` (stereo not given), 113% (inactive).
Under `N[C@@H](CCCC(=O)O)C(=O)O` stands 130% (inactive).
As for `NC(N)=NC(=O)c1nc(Cl)c(N)nc1N`, the figure is 117% (inactive); as for `C=CCN1CC[C@]23c4c5ccc(O)c4O[C@@H]2/C(=N/N=C2\CC[C@@]4(O)C6Cc7ccc(O)c8c7[C@@]4(CCN6CC=C)[C@@H]2O8)CC[C@@]3(O)C1C5`, 100% (inactive).
With `CC(=O)O[C@H]1C[C@@H]2CC[C@@H]3[C@H](CC[C@@]4(C)[C@H]3C[C@H]([N+]3(C)CCCCC3)[C@@H]4OC(C)=O)[C@@]2(C)C[C@@H]1[N+]1(C)CCCCC1`, the vessel count % control was 98% (inactive).
Regarding `O=C(O)CN(CCN(CC(=O)O)CC(=O)O)CCN(CC(=O)O)CC(=O)O`, the vessel count % control is 0% (inactive).
Under `CCOC(=O)C(C)(C)Oc1ccc(Cl)cc1` stands 55.4% (inactive).
Regarding `O=c1cc(O)cc(/C=C/c2ccc(O)c(O)c2)o1`, the vessel count % control is 122% (inactive).
Under `C[N+](C)(CCCCCC[N+](C)(C)CCCN1C(=O)c2cccc3cccc(c23)C1=O)CCCN1C(=O)c2cccc3cccc(c23)C1=O` stands 115% (inactive).
For `CCCN(CCC)CCc1c[nH]c2ccc(C(N)=O)cc12`, the vessel count % control is 80.1% (inactive).
As for `C=C(C)[C@H]1CN[C@H](C(=O)O)[C@H]1CC(=O)O`, the figure is 123% (inactive).
Under `NCC(CP(=O)(O)O)c1ccc(Cl)cc1` (stereo not given) stands 116% (inactive); under `O=C(C1CCCCC1)N1CC(=O)N2CCc3ccccc3C2C1` (stereo not given), 101% (inactive); under `O=C(CCc1ccc(O)cc1)c1c(O)cc(O)cc1O`, 124% (inactive).
As for `C=CCc1ccccc1OCC(O)CNC(C)C` (stereo not given), the figure is 105% (inactive); as for `NC1CCc2cc(O)c(O)cc2C1` (stereo not given), 94.8% (inactive); as for `NC(=O)c1cc[n+](CC2=C(C(=O)O)N3C(=O)[C@@H](NC(=O)[C@@H](c4ccccc4)S(=O)(=O)[O-])[C@H]3SC2)cc1`, 99.9% (inactive).
For the compound `CCn1cc(C(=O)O)c(=O)c2ccc(C)nc21`, the vessel count % control was 135% (inactive).
For the compound `N#CC(C#N)=C(N)/C(C#N)=C/c1ccc(O)cc1`, the vessel count % control is 93% (inactive).
As for `Cc1cn([C@H]2C=C[C@@H](CO)O2)c(=O)[nH]c1=O`, the figure is 99.1% (inactive); as for `N=Nc1c(-c2c(O)[nH]c3c(Cl)cc(Cl)cc23)[nH]c2ccc(Br)cc12`, 53.5% (inactive).
In the case of `CO[C@H]1CC=C2CCN3CCC4=C(CC(=O)OC4)[C@]23C1`, the vessel count % control was 105% (inactive).
As for `CC(C)NNC(=O)c1ccncc1`, the figure is 118% (inactive); as for `C=C[C@H]1CN2CCC1C[C@@H]2[C@@H](O)c1ccnc2ccc(OC)cc12` (stereo not given in full), 149% (inactive); as for `CC(C)(C)c1o[nH]c(=O)c1CC(N)C(=O)O` (stereo not given), 106% (inactive).
As for `O=C(O)CCC(C(=O)O)N1C(=O)c2ccccc2C1=O` (stereo not given), the figure is 105% (inactive); as for `CC(C)Oc1cccnc1N(C)C1CCN(Cc2ccccc2)CC1`, 98.1% (inactive).
As for `O=C1NC(=O)C(c2ccccc2[N+](=O)[O-])=C1Nc1ccc(O)c(Cl)c1`, the vessel count % control was 105% (inactive).
As for `COc1ccccc1N1CCN(CC(O)COc2cccc3ccccc23)CC1` (stereo not given), the figure is 91.2% (inactive); as for `CN1Cc2c(N)cccc2C(c2ccccc2)C1` (stereo not given), 112% (inactive); as for `CN(C)C(N)=NCCC[C@H](N)C(=O)O`, 93.3% (inactive).
As for `OC[C@H]1O[C@@H](n2cnc3c(NC4CCCCC4)ncnc32)[C@H](O)[C@@H]1O`, the figure is 104% (inactive); as for `C[C@]12CCC3C(CC[C@H]4C[C@H](O)CC[C@]34C)C1CC[C@@H]2C(=O)CO` (stereo not given in full), 105% (inactive); as for `NC(N)=Nc1ccc2[nH]c3c(c2c1)C[C@@]1(O)[C@H]2Cc4ccc(O)c5c4[C@@]1(CCN2CC1CC1)[C@H]3O5`, 101% (inactive).
Regarding `CN1CCN(CCCN2c3ccccc3Sc3ccc(C(F)(F)F)cc32)CC1`, the vessel count % control was 105% (inactive).
Under `O=[N+]([O-])c1cccc2cn[nH]c12` stands 136% (inactive).
Under `N[C@@H](Cc1ccc(O)c(O)c1)C(=O)O` stands 118% (inactive).
Under `C[N+](C)(C)CCCCCC[N+](C)(C)C` stands 115% (inactive) and 117% (inactive); under `CC(=O)[C@H]1CCC2C3CC=C4C[C@@H](OS(=O)(=O)O)CC[C@]4(C)C3CC[C@@]21C` (stereo not given in full), 85% (inactive).
On to `Cn1cnc2c(NC3CCCC3)ncnc21`, for which the vessel count % control is 95.9% (inactive).
As for `C[C@@H]1O[C@H](C[N+](C)(C)C)C[C@H]1O`, the figure is 104% (inactive).
As for `CCCN(CCC)[C@@H]1CCc2ccc(O)cc2C1`, the figure is 93.2% (inactive).
Under `O=C(c1cc(O)c(O)c([N+](=O)[O-])c1)c1ccccc1F` stands 116% (inactive).
Regarding `O=C(O)CCCCCCCC(=O)O`, the vessel count % control was 95.3% (inactive).
As for `NC(=O)CNCCC(c1ccccc1)c1ccccc1`, the figure is 119% (inactive); as for `CCOC(=O)N1CCC(=C2c3ccc(Cl)cc3CCc3cccnc32)CC1`, 103% (inactive); as for `O=C(O)[C@@H]1C[C@@H](C(=O)O)N1`, 99.6% (inactive).
As to `O=C1CCC(N2C(=O)c3ccccc3C2=O)C(=O)N1` (stereo not given), the vessel count % control is 108% (inactive).
Under `Cc1[nH]c(=O)c(C#N)cc1-c1ccncc1` stands 84.9% (inactive); under `COc1ccc(C(=O)N2CCCC2=O)cc1`, 116% (inactive); under `N[C@@H](Cc1ccc(F)cc1)C(=O)O`, 108% (inactive).
As for `C[N+](C)(C)CCOC(=O)CBr`, the vessel count % control was 95.6% (inactive).
For the compound `OCC1NC[C@@H](O)C(O)[C@@H]1O` (stereo not given in full), the vessel count % control is 89.4% (inactive).
As for `Oc1ccc(C2CNCCc3c2cc(O)c(O)c3Cl)cc1` (stereo not given), the figure is 117% (inactive); as for `CN1CCCC1CCOC(C)(c1ccccc1)c1ccc(Cl)cc1` (stereo not given), 67.5% (inactive); as for `Cc1c(OCC(F)(F)F)ccnc1CS(=O)c1nc2ccccc2[nH]1` (stereo not given), 76.7% (inactive).
As for `COc1ccccc1N1CCN(CCCCNC(=O)c2ccc3ccccc3c2)CC1`, the figure is 52% (inactive).
As for `CC(O)C(C)OC(=O)[C@@H]1C[C@@H]2c3cccc4c3c(cn4C(C)C)C[C@H]2N(C)C1` (stereo not given in full), the vessel count % control is 90.9% (inactive).
As for `Cc1cccc(/C=C/c2ccccc2)n1`, the figure is 74.2% (inactive); as for `NCC#Cc1ccccc1`, 107% (inactive).
As for `O=c1[nH]oc2c1CCNC2`, the figure is 103% (inactive).
As for `S=C(S)N1CCCC1`, the figure is 73.2% (inactive); as for `CC(C)C[C@H](NC(=O)[C@H](O)[C@H](N)Cc1ccccc1)C(=O)O`, 104% (inactive); as for `CC1=C(/C=C/C(C)=C/C=C/C(C)=C\C(=O)O)C(C)(C)CCC1`, 76.1% (inactive).
On to `O=c1[nH]cnc2[nH]ncc12`, for which the vessel count % control was 120% (inactive).
As for `O=C1O/C(=C/Br)CCC1c1cccc2ccccc12` (stereo not given), the figure is 87.4% (inactive); as for `O=C(O)/C=C/c1ccc(O)c(O)c1`, 108% (inactive); as for `O=C(O)C1CN(CCCP(=O)(O)O)CCN1` (stereo not given), 119% (inactive).
As for `CCCC(C(=O)OCCN(CC)CC)(c1ccccc1)c1ccccc1`, the figure is 98% (inactive).
Under `NCCCCCC(=O)O` stands 116% (inactive); under `C[C@H]1O[C@@H](n2cc(F)c(=O)[nH]c2=O)[C@H](O)[C@@H]1O`, 108% (inactive); under `CN1C[C@H](C(=O)N[C@]2(C)O[C@@]3(O)[C@@H]4CCCN4C(=O)[C@H](Cc4ccccc4)N3C2=O)C[C@@H]2c3cccc4[nH]cc(c34)C[C@H]21`, 98.7% (inactive).
In the case of `COC(=O)C1=C(C)NC(C)=C(C(=O)OCCN(C)Cc2ccccc2)C1c1cccc([N+](=O)[O-])c1` (stereo not given), the vessel count % control is 65.5% (inactive).
As for `CN=C(N)NCCC[C@H](N)C(=O)O`, the figure is 93% (inactive).
As for `O=c1[nH]c2cc(Cl)ccc2c(O)c1-c1ccc(Oc2ccccc2)cc1`, the figure is 66.8% (inactive).
Under `C[C@]12CCC(=O)C=C1CC[C@@H]1[C@@H]2CC[C@]2(C)C(=O)CC[C@@H]12` stands 102% (inactive); under `COCC(=O)O[C@]1(CCN(C)CCCc2nc3ccccc3[nH]2)CCc2cc(F)ccc2[C@@H]1C(C)C`, 90.9% (inactive).
In the case of `CN1CCN2c3ccccc3Cc3ccccc3C2C1` (stereo not given), the vessel count % control was 72.3% (inactive).
As for `CNc1ccc2oc(C[C@H]3O[C@@]4(CC[C@H]3C)O[C@H]([C@H](C)C(=O)c3ccc[nH]3)[C@H](C)C[C@H]4C)nc2c1C(=O)O`, the vessel count % control is 0% (inactive).
As for `O=Nc1c(-c2c(O)[nH]c3ccccc23)[nH]c2ccccc12`, the figure is 15.6%; as for `CC(=O)O[C@]1(C(C)=O)CC[C@H]2[C@@H]3C=C(Cl)C4=CC(=O)[C@@H]5C[C@@H]5[C@]4(C)[C@H]3CC[C@@]21C`, 71.2% (inactive).
Under `C=C(C)C1CC=C(C(=O)O)CC1` (stereo not given) stands 109% (inactive).
